In patent US20170121344A1 (Siga Technologies, Inc., priority 2009, published 2017):
pEC50: −log10 of the molar value. Read-outs that look alike come from different tables or passages of the source.

Test system: Dengue-2 (Strain New Guinea C)
Experiment: Viral yield assay against Dengue-2 in Vero cells
Assay type: cell-based, Dengue virus
Conditions: Dengue virus; for pEC50: read-out: Activity (EC50 class) against Dengue-2 Virus in Vero cells; for EC50: read-out: Activity (EC50 in μM) DENV-2
Outline: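 Virus yield, titered on Vero cells from cultures harvested at 48 h post infection, gave the EC50. Cultures were infected at MOI 0.1 with dengue-2 and treated with compound or DMSO at 37° C. DENV-1 and DENV-4 were determined similarly.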

[1] = Vero cells, MOI 0.1, harvested 48 hours post infection
[2] = DENV2, viral yield assay, Vero cells, MOI 0.1, 48 hours post infection

Q: COCc1cc(C)nc2sc(C(=O)Nc3cccc4ccccc34)c(N)c12 [Compound 74, 3-Amino-4-methoxymethyl-6-methyl-thieno[2,3-b]pyridine-2-carboxylic acid naphthalen-1-ylamide] was tested. Which pEC50 [1] did it give?
A: The pEC50 was 4.60 to 5.30.

Q: CN(C)CCNc1c(C(=O)Nc2nnc(-c3ccccc3)s2)sc2nc3c(cc12)CCCCC3 [Compound 315, 3-((2-(dimethylamino)ethyl)amino)-N-(5-phenyl-1,3,4-thiadiazol-2-yl)-6,7,8,9-tetrahydro-5H-cyclohepta[b]thieno [3,2-e]pyridine-2-carboxamide] was tested. Which EC50 (DENV2, Vero cells) did it give?
A: Its EC50 is less than 5 µM.

Q: How did the EC50 [2] turn out when Cc1ccc(Cl)cc1NC(=O)c1sc2nc(-c3ccc(F)cc3)ccc2c1N [Compound 621, 3-amino-N-(5-chloro-2-methyl-phenyl)-6-(4-fluorophenyl)thieno[2,3-b]pyridine-2-carboxamide] was run?
A: The EC50 was less than 5 µM.

Q: CCN(CC)C(=O)c1sc2nc3c(cc2c1N)CCC3 [Compound 138, 3-Amino-6,7-dihydro-5H-cyclopenta[b]thieno[3,2-e]pyridine-2-carboxylic acid diethylamide] was tested. Which pEC50 (Vero, 48 h) did it give?
A: Its pEC50 is less than 4.60.

Q: Nc1c(C(=O)Nc2nc3ccccc3s2)sc2nc(-c3cccs3)ccc12 [Compound 436, 3-amino-N-(1,3-benzothiaozl-2-yl)-6-(2-thienyl)thieno[2,3-b]pyridine-2-carboxamide] was tested. Which EC50 (DENV2, Vero, 48 h) did it give?
A: Its EC50 is less than 5 µM.

Q: With Nc1c(C(=O)Nc2ccc(O)cc2)sc2nc(-c3ccc(Cl)cc3)ccc12 [Compound 356, 3-amino-6-(4-chlorophenyl)-N-(4-hydroxy-phenyl) thieno [2,3-b]pyridine-2-carboxamide] as the compound, how does the EC50 [2] read?
A: The EC50 was 5 to 25 µM.

Q: For N=C(Nc1cccc(C(F)(F)F)c1)c1sc2nc(-c3cccs3)ccc2c1N [Compound 319, 3-amino-6-(2-thienyl)-N-[3-(trifluoromethyl)phenyl]thieno[2,3-b]pyridine-2-carboxamidine], which EC50 [2] is on record?
A: Its EC50 is less than 5 µM.

Q: Cc1cc(C(F)(F)F)nc2sc(C(=O)Nc3ccccc3I)c(N)c12 [Compound 131, 3-Amino-4-methyl-6-trifluoromethyl-thieno[2,3-b]pyridine-2-carboxylic acid (2-iodo-phenyl)-amide] was tested. Which pEC50 [1] did it give?
A: The pEC50 was less than 4.60.

Q: Nc1c(C(=O)Nc2nccs2)sc2nc3c(c(-c4ccccc4Cl)c12)CCCC3 [Compound 10, 3-Amino-4-(2-chloro-phenyl)-5,6,7,8-tetrahydro-thieno[2,3-b]quinoline-2-carboxylic acid thiazol-2-ylamide] was tested. Which pEC50 (Vero, 48 h) did it give?
A: The pEC50 was greater than 5.30.

Q: With Nc1c(C(=O)Nc2ccc(C(=O)C(F)(F)F)cc2)sc2nc(-c3ccc(Cl)cc3)ccc12 [Compound 351, 3-amino-6-(4-chlorophenyl)-N-[4-(2,2,2-tri-fluoroacetyl)phenyl]thieno [2,3-b]pyridine-2-carboxamide] as the compound, how does the EC50 [2] read?
A: The EC50 was less than 5 µM.

Q: For Cc1cc(C)c2c(C)c(C(=O)Nc3nc4ccccc4s3)sc2n1 [Compound 392, N-(1,3-benzothiazol-2-yl)-3,4,6-trimethyl-thieno[2,3-b]pyridine-2-carboxamide], which EC50 [2] is on record?
A: The EC50 was 5 to 25 µM.

Q: CCN1CCc2nc3sc(C(=O)N4CCc5ccccc5C4)c(N)c3cc2C1 [Compound 22, (3-Amino-6-ethyl-5,6,7,8-tetrahydro-thieno[2,3-b][1,6]naphthyridin-2-yl)-(3,4-dihydro-1H-isoquinolin-2-yl)-methanone] was tested. Which pEC50 (Vero, 48 h) did it give?
A: Its pEC50 is greater than 5.30.

Q: With Cc1cc(C)c2c(N)c(C(=O)Nc3ccc(S(N)(=O)=O)cc3)sc2n1 [Compound 183, 3-Amino-4,6-dimethyl-thieno[2,3-b]pyridine-2-carboxylic acid (4-sulfamoyl-phenyl)-amide] as the compound, how does the pEC50 [1] read?
A: The pEC50 was less than 4.60.

Q: With Nc1c(C(=O)N2CCCCC2)sc2nc3c(cc12)CCCCC3 [Compound 191, (3-Amino-6,7,8,9-tetrahydro-5H-1-thia-10-aza-cyclohepta[f]inden-2-yl)-piperidin-1-yl-methanone] as the compound, how does the pEC50 [1] read?
A: Its pEC50 is less than 4.60.

Q: COc1ccccc1NC(=O)c1sc2nc(N3CCOCC3)cc(-c3ccccc3)c2c1O [Compound 385, 3-hydroxy-N-(2-methoxyphenyl)-6-morpholino-4-phenyl-thieno[2,3-b] pyridine-2-carboxamide] was tested. Which EC50 [2] did it give?
A: Its EC50 is 5 to 25 µM.

Q: How did the pEC50 [1] turn out when CC(=O)c1cccc(NC(=O)c2sc3nc(C)cc(C)c3c2N)c1 [Compound 256, 3-Amino-4,6-dimethyl-thieno[2,3-b]pyridine-2-carboxylic acid (3-acetyl-phenyl)-amide] was run?
A: The pEC50 was less than 4.60.

Q: COc1ccc(NC(=O)c2sc3nc(-c4ccc(OC)c(OC)c4)ccc3c2N)c(OC)c1 [Compound 536, 3-amino-N-(2,4-dimethoxyphenyl)-6-(3,4-dimethoxyphenyl)thieno[2,3-b]pyridine-2-carboxamide] was tested. Which EC50 [2] did it give?
A: Its EC50 is less than 5 µM.

Q: How did the pEC50 (Vero, 48 h) turn out when N#Cc1cc2c(N)c(C(=O)Nc3ccccc3Br)sc2nc1N [Compound 134, 3,6-Diamino-5-cyano-thieno[2,3-b]pyridine-2-carboxylic acid (2-bromo-phenyl)-amide] was run?
A: The pEC50 was less than 4.60.

Q: CN1CCc2nc3sc(C(=O)Nc4ccccc4)c(N)c3c(-c3ccccc3)c2C1 [Compound 49, 3-Amino-6-methyl-4-phenyl-5,6,7,8-tetrahydro-thieno[2,3-b][1,6]naphthyridine-2-carboxylic acid phenylamide] was tested. Which pEC50 [1] did it give?
A: Its pEC50 is greater than 5.30.

Q: How did the pEC50 [1] turn out when CCN(CC)C(=O)c1sc2nc3c(cc2c1N)CN(C)CC3 [Compound 15, 3-Amino-6-methyl-5,6,7,8-tetrahydro-thieno[2,3-b][1,6]naphthyridine-2-carboxylic acid diethylamide] was run?
A: The pEC50 was greater than 5.30.

Q: How did the pEC50 [1] turn out when CCCc1ccc2c(N)c(C(=O)Nc3nc(C(F)(F)F)ccc3Cl)sc2n1 [Compound 73, 3-Amino-6-propyl-thieno[2,3-b]pyridine-2-carboxylic acid (3-chloro-6-trifluoromethyl-pyridin-2-yl)-amide] was run?
A: Its pEC50 is 4.60 to 5.30.

Q: For Nc1c(C(=O)Nc2cccc3ccccc23)sc2nc3c(cc12)CCCCC3 [Compound 374, 3-amino-N-(naphthalen-1-yl)-6,7,8,9-tetrahydro-5H-cyclohepta[b]thieno[3,2-e] pyridine-2-carboxamide], which EC50 [2] is on record?
A: The EC50 was less than 5 µM.

Q: For CCOc1ccccc1NC(=O)c1sc2nc(-c3ccc4c(c3)OCO4)ccc2c1N [Compound 517, 3-amino-6-(1,3-benzodioxol-5-yl)-N-(2-ethoxyphenyl)thieno[2,3-b]pyridine-2-carboxamide], which EC50 [2] is on record?
A: The EC50 was less than 5 µM.

Q: How did the pEC50 [1] turn out when CCc1nnc(NC(=O)c2sc3nc4c(cc3c2N)CCCC4)s1 [Compound 92, 3-Amino-5,6,7,8-tetrahydro-thieno[2,3-b]quinoline-2-carboxylic acid (5-ethyl-[1,3,4]thiadiazol-2-yl)-amide] was run?
A: Its pEC50 is 4.60 to 5.30.

Q: Which EC50 [2] does the source give for Cc1cc(C)c2c(C)c(C(=O)Nc3ccc(NC(=O)C4CC4)cc3)sc2n1 [Compound 393, N-[4-(cyclopropanecarbonylamino)phenyl]-3,4,6-trimethyl-thieno[2,3-b]pyridine-2-carboxamide] here?
A: Its EC50 is 5 to 25 µM.

Q: How did the pEC50 (Vero, 48 h) turn out when CC(C)N1CCc2nc3sc(C(=O)NCc4ccc5c(c4)OCO5)c(N)c3cc2C1 [Compound 26, 3-Amino-6-isopropyl-5,6,7,8-tetrahydro-thieno[2,3-b][1,6]naphthyridine-2-carboxylic acid (benzo[1,3]dioxol-5-ylmethyl)-amide] was run?
A: The pEC50 was greater than 5.30.

Q: How did the EC50 [2] turn out when CCCCNC(=O)c1sc2nc3c(cc2c1N)CCCCC3 [Compound 282, 3-amino-N-butyl-6,7,8,9-tetrahydro-5H-cyclohepta [b]thieno[3,2-e]pyridine-2-carboxamide] was run?
A: Its EC50 is 5 to 25 µM.

Q: Which EC50 [2] does the source give for COc1ccc(-c2ccc3c(N)c(C(=O)Nc4cccc(Cl)c4C)sc3n2)cc1OC [Compound 573, 3-amino-N-(3-chloro-2-methyl-phenyl)-6-(3,4-dimethoxyphenyl)thieno[2,3-b] pyridine-2-carboxamide] here?
A: Its EC50 is less than 5 µM.

Q: For CCOc1ccccc1NC(=O)c1sc2nc(-c3ccc(F)cc3)ccc2c1N [Compound 606, 3-amino-N-(2-ethoxyphenyl)-6-(4-fluorophenyl)thieno[2,3-b]pyridine-2-carboxamide], which EC50 [2] is on record?
A: Its EC50 is less than 5 µM.

Q: For COc1cccc(-c2ccc3c(N)c(C(=O)Nc4cc(C)ccc4C)sc3n2)c1 [Compound 626, 3-amino-N-(2,5-dimethylphenyl)-6-(3-methoxyphenyl)thieno[2,3-b]pyridine-2-carboxamide], which EC50 [2] is on record?
A: Its EC50 is less than 5 µM.

Q: CCc1c2c(nc3sc(C(=O)N4CCOCC4)c(N)c13)CC(C)(C)CC2=O [Compound 208, 3-Amino-4-ethyl-7,7-dimethyl-2-(morpholine-4-carbonyl)-7,8-dihydro-6H-thieno[2,3-b]quinolin-5-one] was tested. Which pEC50 [1] did it give?
A: The pEC50 was less than 4.60.

Q: CN1CCc2nc3sc(C(=O)NCc4ccccc4Cl)c(N)c3cc2C1 [Compound 113, 3-Amino-6-methyl-5,6,7,8-tetrahydro-thieno[2,3-b][1,6]naphthyridine-2-carboxylic acid 2-chloro-benzylamide] was tested. Which pEC50 [1] did it give?
A: Its pEC50 is 4.60 to 5.30.

Q: How did the pEC50 [1] turn out when C=CCc1c(C)nc2sc(C(=O)Nc3ccc([N+](=O)[O-])cc3)c(N)c2c1C [Compound 225, 5-Allyl-3-amino-4,6-dimethyl-thieno[2,3-b]pyridine-2-carboxylic acid (4-nitro-phenyl)-amide] was run?
A: Its pEC50 is less than 4.60.

Q: Nc1c(C(=O)N2CCCCC2)sc2nc(-c3cccs3)cc(C(F)(F)F)c12 [Compound 189, (3-Amino-6-thiophen-2-yl-4-trifluoromethyl-thieno[2,3-b]pyridin-2-yl)-piperidin-1-yl-methanone] was tested. Which pEC50 [1] did it give?
A: Its pEC50 is less than 4.60.

Q: How did the pEC50 [1] turn out when CCc1nnc(NC(=O)c2sc3nc4c(cc3c2N)CN(C(C)C)CC4)s1 [Compound 272, 3-Amino-6-isopropyl-5,6,7,8-tetrahydro-thieno[2,3-b][1,6]naphthyridine-2-carboxylic acid (5-ethyl-[1,3,4]thiadiazol-2-yl)-amide] was run?
A: Its pEC50 is less than 4.60.

Q: With CCc1nnc(NC(=O)c2sc3nc4c(cc3c2N)CCC4)s1 [Compound 190, 3-Amino-6,7-dihydro-5H-cyclopenta[b]thieno[3,2-e]pyridine-2-carboxylic acid (5-ethyl-[1,3,4]thiadiazol-2-yl)-amide] as the compound, how does the pEC50 [1] read?
A: Its pEC50 is less than 4.60.
